Source: paper PMC10303200 (ACS Central Science, 2023)

Key:
Assay type in all cases: binding
[1] = target: T1, GAL-3C (Homo sapiens, UniProt P17931); assay: COIN-nMS with a mixture of ten glycans (G2, G5-G13), 200 mM ammonium acetate, pH 6.9.; parameters: gene LGALS3; C-terminal carbohydrate recognition domain fragment, residues 107-250; conditions: SD, n = 8; read-out: Kd (COIN-nMS), Table S3
[2] = target: T2, GAL-7 (Homo sapiens, UniProt P47929); assay: Direct native ESI-MS of the GAL-7 homodimer with a mixture of ten glycans (G2, G5-G13), 200 mM ammonium acetate, pH 6.9.; conditions: SD, n = 8; read-out: Kd (nMS), Table S4
T2 construct: gene LGALS7; homodimer (monomer MW 14.94 kDa)
T2 sequence (P47929 whole entry): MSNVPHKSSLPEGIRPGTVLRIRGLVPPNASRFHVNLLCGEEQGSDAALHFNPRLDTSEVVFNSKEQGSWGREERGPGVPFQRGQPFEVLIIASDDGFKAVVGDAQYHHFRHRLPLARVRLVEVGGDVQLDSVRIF

[3] = target: T1, GAL-3C; assay: Direct native ESI-MS with a mixture of ten glycans (G2, G5-G13), 200 mM ammonium acetate, pH 6.9.; parameters: gene LGALS3; C-terminal carbohydrate recognition domain fragment, residues 107-250; conditions: SD, n = 8; read-out: Kd (nMS), Table S3
[4] = target: T2, GAL-7; assay: COIN-nMS of the GAL-7 homodimer with a mixture of ten glycans (G2, G5-G13), 200 mM ammonium acetate, pH 6.9.; conditions: SD, n = 8; read-out: Kd (COIN-nMS), Table S4
[5] = target: T3, Sig7-Fc (Homo sapiens, UniProt Q9Y286); assay: COIN-CaR-nMS with purified oligosaccharides listed beside the library glycans, 200 mM ammonium acetate, pH 6.9.; parameters: gene SIGLEC7; residues 1-345, human IgG1 Fc fusion and C-terminal His6, from CHO cells, MW 150 kDa
Target sequence in this assay (Q9Y286 1-345): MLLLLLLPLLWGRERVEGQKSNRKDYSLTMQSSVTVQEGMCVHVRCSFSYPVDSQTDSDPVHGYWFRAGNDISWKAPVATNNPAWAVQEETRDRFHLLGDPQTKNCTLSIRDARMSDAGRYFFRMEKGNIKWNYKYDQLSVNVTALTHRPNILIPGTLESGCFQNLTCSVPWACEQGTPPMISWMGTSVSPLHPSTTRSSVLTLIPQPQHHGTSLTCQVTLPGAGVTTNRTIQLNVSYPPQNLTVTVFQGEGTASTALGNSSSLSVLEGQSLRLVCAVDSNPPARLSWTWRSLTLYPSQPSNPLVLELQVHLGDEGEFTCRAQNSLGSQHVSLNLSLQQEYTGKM

[6] = target: T3, Sig7-Fc; assay: COIN-CaR-nMS; parameters: Siglec 7-Fc (Sig7-Fc, residue 1–345, MW 150 kDa); His6 (C); made in house; host or cells: wild-type CHO cells
Target sequence in this assay (Q9Y286 19-345): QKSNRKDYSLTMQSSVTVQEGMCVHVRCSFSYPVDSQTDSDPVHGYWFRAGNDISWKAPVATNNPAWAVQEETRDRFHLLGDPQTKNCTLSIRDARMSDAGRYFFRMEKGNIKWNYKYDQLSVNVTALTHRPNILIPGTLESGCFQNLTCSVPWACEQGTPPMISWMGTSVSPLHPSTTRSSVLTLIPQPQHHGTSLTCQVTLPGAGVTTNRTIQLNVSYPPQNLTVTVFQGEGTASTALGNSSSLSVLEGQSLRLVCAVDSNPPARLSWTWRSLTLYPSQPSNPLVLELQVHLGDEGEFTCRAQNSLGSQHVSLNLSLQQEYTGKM

[7] = SD; read-out: Kd, purified oligosaccharides in Tables S12, S13, S18, S19
[8] = read-out: Kd, purified oligosaccharides in Tables S12, S13, S18, S19; SD
[9] = N-glycan natural libraries and purified oligosaccharides, pH 6.9, read-out: Kd

T1 sequence (P17931 107-250): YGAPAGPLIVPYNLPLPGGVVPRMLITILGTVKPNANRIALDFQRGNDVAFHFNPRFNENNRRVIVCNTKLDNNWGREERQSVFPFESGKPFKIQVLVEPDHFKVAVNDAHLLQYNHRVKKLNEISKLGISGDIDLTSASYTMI

CC(=O)N[C@H]1[C@H](O[C@H]2[C@@H](O)[C@@H](CO)O[C@@H](O[C@H]3[C@H](O[C@@H]4O[C@@H](C)[C@@H](O)[C@@H](O)[C@@H]4O)[C@@H](O)C(O)O[C@@H]3CO)[C@@H]2O)O[C@H](CO)[C@@H](O)[C@@H]1O[C@@H]1O[C@H](CO)[C@H](O)[C@H](O)[C@H]1O (stereo partly drawn) [G6, β-D-Gal(1→3)-β-D-GlcNAc(1→3)-β-D-Gal(1→4)-[α-L-Fuc(1→3)]-β-D-Glc]
Kd [1]: 101 µM | Kd [2]: 232 µM | Kd [3]: 26.8 µM | Kd [4]: 278 µM

CC(=O)N[C@H]1[C@H](O[C@H]2[C@@H](O)[C@@H](CO)O[C@@H](O[C@H]3[C@H](O)[C@@H](NC(C)=O)[C@H](O[C@H]4[C@@H](O)[C@@H](CO)O[C@@H](O[C@H]5[C@H](O)[C@@H](O)C(O)O[C@@H]5CO)[C@@H]4O)O[C@@H]3CO)[C@@H]2O)O[C@H](CO)[C@@H](O[C@@H]2O[C@H](CO)[C@H](O)[C@H](O)[C@H]2O)[C@@H]1O (stereo partly drawn) [G7, β-D-Gal-(1→4)-β-D-GlcNAc(1→3)-β-D-Gal(1→4)-β-D-GlcNAc(1→3)-β-D-Gal(1→4)-β-D-Glc]
Kd [1]: 2.9 µM | Kd [2]: 348 µM | Kd [3]: 5 µM | Kd [4]: 362 µM

CC(=O)N[C@H]1[C@H](O[C@H]2[C@@H](O)[C@@H](CO)O[C@@H](O[C@H]3[C@H](O)[C@@H](NC(C)=O)[C@H](O[C@H]4[C@@H](O)[C@@H](CO)O[C@@H](O[C@H]5[C@H](O)[C@@H](NC(C)=O)[C@H](O[C@H]6[C@@H](O)[C@@H](CO)O[C@@H](O[C@H]7[C@H](O)[C@@H](O)C(O)O[C@@H]7CO)[C@@H]6O)O[C@@H]5CO)[C@@H]4O)O[C@@H]3CO)[C@@H]2O)O[C@H](CO)[C@@H](O[C@@H]2O[C@H](CO)[C@H](O)[C@H](O)[C@H]2O)[C@@H]1O (stereo partly drawn) [G8, β-D-Gal-(1→4)-β-D-GlcNAc-(1→3)-β-D-Gal-(1→4)-β-D-GlcNAc-(1→3)-β-D-Gal-(1→4)-β-D-GlcNAc-(1→3)-β-D-Gal-(1→4)-β-D-Glc]
Kd [1]: 5.8 µM | Kd [2]: 178 µM | Kd [3]: 5.5 µM | Kd [4]: 232 µM

CC(=O)N[C@H]1[C@H](O[C@H]2[C@@H](O)[C@@H](CO)O[C@@H](O[C@H]3[C@H](O)[C@@H](O)C(O)O[C@@H]3CO)[C@@H]2O)O[C@H](CO)[C@@H](O[C@@H]2O[C@H](CO)[C@H](O)[C@H](O)[C@H]2O)[C@@H]1O (stereo partly drawn) [G9, β-D-Gal-(1→4)-β-D-GlcNAc-(1→3)-β-D-Gal-(1→4)-β-D-Glc]
Kd [1]: 12.9 µM | Kd [2]: 348 µM | Kd [3]: 23.2 µM | Kd [4]: 439 µM

CC(=O)N[C@H]1[C@@H](O[C@H]2[C@@H](O)[C@@H](CO)O[C@@H](O[C@H]3[C@H](O)[C@@H](O)C(O)O[C@@H]3CO)[C@@H]2O[C@@H]2O[C@@H](C)[C@@H](O)[C@@H](O)[C@@H]2O)O[C@H](CO)[C@H](O)[C@@H]1O (stereo partly drawn) [G12, α-D-GalNAc-(1→3)-[α-L-Fuc-(1→2)]-β-D-Gal-(1→4)-β-D-Glc]
Kd [1]: 10.4 µM | Kd [2]: 184 µM | Kd [3]: 11.3 µM | Kd [4]: 333 µM

CC(=O)N[C@H]1[C@@H](O[C@H]2[C@@H](O)[C@@H](CO)O[C@@H](O[C@H]3[C@H](O)[C@@H](CO)O[C@@H](O[C@H]4[C@@H](O)[C@@H](CO)O[C@@H](O[C@H]5[C@H](O)[C@@H](O)C(O)O[C@@H]5CO)[C@@H]4O)[C@@H]3NC(C)=O)[C@@H]2O[C@@H]2O[C@@H](C)[C@@H](O)[C@@H](O)[C@@H]2O)O[C@H](CO)[C@H](O)[C@@H]1O (stereo partly drawn) [G13, α-D-GalNAc-(1→3)-[α-L-Fuc-(1→2)]-β-D-Gal-(1→3)-β-D-GlcNAc-(1→3)-β-D-Gal-(1→4)-β-D-Glc]
Kd [1]: 2.4 µM | Kd [2]: 261 µM | Kd [3]: 4.6 µM | Kd [4]: 261 µM

CC(=O)N[C@H]1[C@H](O[C@@H]2[C@H](O[C@]3(C(=O)O)C[C@H](O)[C@@H](NC(C)=O)[C@H]([C@H](O)[C@@H](CO)O[C@]4(C(=O)O)C[C@H](O)[C@@H](NC(C)=O)[C@H]([C@H](O)[C@H](O)CO)O4)O3)[C@@H](O)[C@H](O[C@H]3[C@H](O)[C@@H](O)C(O)O[C@@H]3CO)O[C@@H]2CO)O[C@H](CO)[C@H](O)[C@@H]1O (stereo partly drawn) [G29, GD2 oligosaccharide, α-D-GalNAc(1→4)-[α-D-Neu5Ac-(2→8)-α-D-Neu5Ac-(2→3)]-β-D-Gal-(1→4)-D-Glc]
Kd [5, 7]: 205 µM

CC(=O)N[C@H]1[C@H](O[C@@H]2[C@H](O[C@]3(C(=O)O)C[C@H](O)[C@@H](NC(C)=O)[C@H]([C@H](O)[C@@H](CO)O[C@]4(C(=O)O)C[C@H](O)[C@@H](NC(C)=O)[C@H]([C@H](O)[C@H](O)CO)O4)O3)[C@@H](O)[C@H](O[C@H]3[C@H](O)[C@@H](O)C(O)O[C@@H]3CO)O[C@@H]2CO)O[C@H](CO)[C@H](O)[C@@H]1O[C@@H]1O[C@H](CO)[C@H](O)[C@H](O)[C@H]1O (stereo partly drawn) [GD1b, GD1b oligosaccharide, β-D-Gal(1→3)-α-D-GalNAc(1→4)-[α-D-Neu5Ac-(2→8)-α-D-Neu5Ac-(2→3)]-β-D-Gal-(1→4)-D-Glc]
Kd [5, 7]: 1220 µM

CC(=O)N[C@H]1[C@H]([C@H](O)[C@H](O)CO)O[C@@](O[C@H](CO)[C@@H](O)[C@@H]2O[C@@](O[C@H]3[C@@H](O)[C@@H](CO)O[C@@H](O[C@H]4[C@H](O)[C@@H](O)C(O)O[C@@H]4CO)[C@@H]3O)(C(=O)O)C[C@H](O)[C@H]2NC(C)=O)(C(=O)O)C[C@@H]1O (stereo partly drawn) [GD3, GD3 oligosaccharide, α-D-Neu5Ac-(2→8)-α-D-Neu5Ac-(2→3)-β-D-Gal-(1→4)-D-Glc]
Kd [5, 7]: 97 µM

CC(=O)N[C@H]1[C@H](O[C@@H]2[C@H](O[C@]3(C(=O)O)C[C@H](O)[C@@H](NC(C)=O)[C@H]([C@H](O)[C@H](O)CO)O3)[C@@H](O)[C@H](O[C@H]3[C@H](O)[C@@H](O)C(O)O[C@@H]3CO)O[C@@H]2CO)O[C@H](CO)[C@H](O)[C@@H]1O[C@@H]1O[C@H](CO)[C@H](O)[C@H](O)[C@H]1O (stereo partly drawn) [GM1, GM1 oligosaccharide, β-D-Gal(1→3)-α-D-GalNAc(1→4)-[α-D-Neu5Ac-(2→3)]-β-D-Gal-(1→4)-D-Glc]
Kd [5, 7]: 437 µM

CC(=O)NC1C(OC2C(CO)OC(OC3C(CO)OC(O)C(O)C3O)C(O)C2OC2(C(=O)O)CC(O)C(NC(C)=O)C(C(O)C(O)CO)O2)OC(CO)C(O)C1O [GM2, GM2 oligosaccharide, α-D-GalNAc(1→4)-[α-D-Neu5Ac-(2→3)]-β-D-Gal-(1→4)-D-Glc]
Kd [5, 8]: 460 µM

CC(=O)NC1C(OC2C(CO)OC(OC3C(CO)OC(O)C(O)C3O)C(O)C2OC2(C(=O)O)CC(O)C(NC(C)=O)C(C(O)C(CO)OC3(C(=O)O)CC(O)C(NC(C)=O)C(C(O)C(CO)OC4(C(=O)O)CC(O)C(NC(C)=O)C(C(O)C(O)CO)O4)O3)O2)OC(CO)C(O)C1O [GT2, GT2 oligosaccharide, α-D-GalNAc(1→4)-[α-D-Neu5Ac-(2→8)-α-D-Neu5Ac-(2→8)-α-D-Neu5Ac-(2→3)]-β-D-Gal-(1→4)-D-Glc]
Kd [5, 8]: 235 µM

CC(=O)NC1C(O)CC(OC(CO)C(O)C2OC(OC(CO)C(O)C3OC(OC4C(O)C(CO)OC(OC5C(CO)OC(O)C(O)C5O)C4O)(C(=O)O)CC(O)C3NC(C)=O)(C(=O)O)CC(O)C2NC(C)=O)(C(=O)O)OC1C(O)C(O)CO [GT3, GT3 oligosaccharide, α-D-Neu5Ac-(2→8)-α-D-Neu5Ac-(2→8)-α-D-Neu5Ac-(2→3)-β-D-Gal-(1→4)-D-Glc]
Kd ([5]; SD): 184 µM

CC(=O)N[C@H]1[C@H](O[C@@H]2[C@H](O[C@]3(C(=O)O)C[C@H](O)[C@@H](NC(C)=O)[C@H]([C@H](O)[C@@H](CO)O[C@]4(C(=O)O)C[C@H](O)[C@@H](NC(C)=O)[C@H]([C@H](O)[C@H](O)CO)O4)O3)[C@@H](O)[C@H](O[C@H]3[C@H](O)[C@@H](O)C(O)O[C@@H]3CO)O[C@@H]2CO)O[C@H](CO)[C@H](O)[C@@H]1O (stereo partly drawn) [Glycan G29, α-D-GalNAc(1→4)-[α-D-Neu5Ac-(2→8)-α-D-Neu5Ac-(2→3)]-β-D-Gal-(1→4)-D-Glc]
Kd ([6]; G21 1.0 μM and G29 30 μM, read-out: Kd (COIN-CaR-nMS), two ligands): 184 ± 5 µM | Kd ([6]; G21 5 μM and G29 30 μM, read-out: Kd (COIN-CaR-nMS), two ligands): 240 ± 2 µM | Kd ([6]; G21 10 μM and G29 30 μM, read-out: Kd (COIN-CaR-nMS), two ligands): 240 ± 10 µM

α-D-GalNAc(1→4)-[α-D-Neu5Ac-(2→3)]-β-D-Gal-(1→4)-D-Glc [Glycan G28]
Kd [6, 9]: 460 ± 117 µM

α-D-Neu5Ac-(2→8)-α-D-Neu5Ac-(2→8)-α-D-Neu5Ac-(2→3)-β-D-Gal-(1→4)-D-Glc [Glycan G27]
Kd [6, 9]: 184 ± 41 µM

β-D-Gal(1→3)-α-D-GalNAc(1→4)-[α-D-Neu5Ac-(2→8)-α-D-Neu5Ac-(2→8)-α-D-Neu5Ac-(2→3)]-β-D-Gal-(1→4)-D-Glc [Glycan G33]
Kd ([6]; N-glycan natural libraries and purified oligosaccharides, pH 6.9, listed as GT1c): weak or no binding
